In patent EP0565593B1, “REDUCING PESTICIDAL INTERACTIONS IN CROPS” (priority 1990, dated 1992):
“And” between values parts separate entries of the source, which are not always exact repeats. Equal entries are not always repeated. Where two headings read alike, the source gives them in different places.

What was measured:
[1] = tested on: cotton (COTT); assay: Multi-crop greenhouse test, biocide, herbicide and safener applied to soil covers (Examples 65, 66; Tables 64, 65); assay type: in vivo; parameters: inhibition: dose or concentration left out as unconfirmed; details: for inhibition / inhibition at 18 g/ha / inhibition at 70 g/ha / inhibition at 280 g/ha: Gossypium hirsutum, soil; for inhibition at 18 g/ha: Herb. No. 1 0.018 Kg/Ha alone; for inhibition at 70 g/ha: Herb. No. 1 0.07 Kg/Ha alone; for inhibition at 280 g/ha: Herb. No. 1 0.28 Kg/Ha alone
Description: Tests according to this invention in various crops indicate widespread application of the invention. In Examples 62-66 below are described tests with a variety of herbicides contacted with COUNTER® 15G in the presence and absence of MON-7400 (Antidote No. 12); MON-13900 (No. 1); MON-4660 (No. 16) and flurazole (No. 16). Those tests were conducted according to Procedures IV or V described above and illustrated further in other foregoing examples. Plants used in all tests were, for crops (as abbreviated in parentheses); cotton (COTT); soybean (SOBE); CORN, grain sorghum (GRSO); wheat (WHEA) and RICE, and the weeds giant foxtail (GIFT) and velvetleaf (VELE). The data in the tables below represent averages of two replications.
In this test the crops and weeds were planted 1.3 cm deep in 13.7 cm X 27.7 cm pans containing Dupo silt loam soil. The test safeners were applied in acetone solution and COUNTER 15G as dry granules to soil cover layers and incorporated by shaking in a bag. Treated cover layers were placed on seeded pans which were transferred to greenhouse benches and subirrigated. Herbicide was applied POE six (6) days after PPI initiation and observations of plant injury made ten (10) days later; results are shown in Table 61. The herbicide used in this example was BEACON (No. 8).
In another test in the several crops and weeds used in this test series, the herbicidal component was MON-12000 (No. 1); the other components were the same. the procedure used in this test was the same as that described in Example 62, modified to use a light overhead irrigation (about 0.32 cm/day) during days 4-7 of the test.
In yet another test in this series, XRD-498 (Herbicide No. 21) was used as the herbicidal component in contact with COUNTER 15G in the presence of the above safeners. The various components of the system (biocide, herbicide and safener) were applied concurrently to soil covers of the seeded plants.

[2] = tested on: Shattercane (SHCA); assay type: in vivo
[3] = tested on: Velvetleaf (VELE); assay: whole plant or invertebrate; assay type: in vivo, Abutilon theophrasti; details: for inhibition at 140 g/ha: Abutilon theophrasti, iv, 312 h
[4] = tested on: Giant foxtail (GIFT); assay: Greenhouse test Procedure VI (Examples 59-61; Tables 58-60); assay type: in vivo
Source text: This procedure describes interaction among herbicide, biocide and antidote when the herbicide is incorporated in a soil cover layer and the biocide and the antidote are applied in a soil furrow containing crop seed before emergence of the crop. The soil and seeding depth were described in Procedure IV. A first container was designated as an untreated control, a second container was designated as a herbicide control, a third container was designated as a herbicide + biocide control and a fourth container as a herbicide + biocide + antidote test container. The biocide and antidote were formulated as granules. The biocide was applied to the soil furrows of the third and fourth containers at an application rate of 1.1 mg of active compound per cm of row. The antidote was applied to the soil furrow of the fourth container at an application rate of 0.37 mg of active compound per cm of row. A measured amount of the herbicide dispersed or dissolved in acetone was applied to a measured quantity of soil. The quantity of soil treated with the herbicide was thoroughly mixed to incorporate the herbicide. Samples of this soil were used to cover the seed beds of the second, third and fourth containers. For each test series, the seed bed of the first container was likewise covered by a soil layer not treated with herbicide and without biocide or antidote in the soil furrow.
The containers were then placed on a bench in a greenhouse. Watering was by subirrigation plus overhead irrigation after the plants emerged. All treatments were run in duplicate. Plant response was observed according to Procedure IV. Variations in this procedure will be noted in the examples.
The procedure used in this example involved the PPI application of biocide and safener as described in general Procedure VI above. The "primary" herbicide in this test was MON-12000 (Herbi-cide No. 1) in admixture with other herbicides designated as "co-herbicides", which included LASSO® (co-herbicide B); DUAL® (C); acetochlor (A); EPTAM® (D); butylate (E) and PURSUIT® (K).
The in-furrow treatments with blended COUNTER 15G and antidote mixtures was as described in above examples. MON-12000 and the co-herbicides were formulated in acetone and applied as tank mixtures, incorporated into Dupo silt loam soil with a rotary drum mixer. Subsamples were used to cover seeded and in-furrow treated 10.2 cm pots. Pots were placed on greenhouse benches and subirrigated. Plant responses were observed thirteen days after PPI initiation. Test results (average of two replications) are shown in Table 58, wherein giant foxtail (GIFT) was used in place of shattercane.
This test was conducted in the same manner used in Example 59. All biocide and antidote components were the same and in these tests XRD-498 (Herbicide No. 21) was the prime herbicide. Co-herbicides are shown in Table 59 together with test data.
In one other test conducted as described in the preceding examples in this series of tests, the herbicide PURSUIT® was used as the primary herbicide (in the context of this invention) together with the same insecticide and safeners as above and the co-herbicides shown in Table 60, together with test results.

[5] = Antidote 4.48 + Biocide No. 1 8.96 Kg/Ha PPI, Herb. No. 8 0.07, 5 DAP, before herbicide application
[6] = Antidote 4.48 + Biocide No. 1 8.96 Kg/Ha PPI, Herb. No. 8 0.07 POE, 13 DAP
[7] = Antidote 4.48 + Biocide No. 1 8.96 Kg/Ha PPI, Herbicide No. 7 0.28 POE, 13 days after planting
[8] = Table 14: Herbicide No. 7 (ACCENT) 0.84 Kg/Ha POE + Biocide No. 2 8.96 Kg/Ha PPI + antidote 4.48 Kg/Ha PPI, 13 days after planting, 8 days after herbicide
[9] = […], 13 days after planting, 8 days after herbicide
[10] = […], observed 10 days after herbicide application
[11] = Antidote + Biocide No. 1 in furrow, Herbicide No. 6 0.14 Kg/Ha PPI
[12] = Antidote + Biocide No. 1 in furrow, Herbicide No. 11 0.0044 Kg/Ha PPI
[13] = Antidote + Biocide No. 1 in furrow, Herbicide No. 12 0.0044 Kg/Ha PPI
[14] = Antidote + Biocide No. 1 in furrow, Herbicide No. 13 0.0011 Kg/Ha PPI
[15] = Antidote + Biocide No. 1 in furrow, Herbicide No. 13 0.0022 Kg/Ha PPI
[16] = Antidote + Biocide No. 1 in furrow, Herbicide No. 14 0.07 Kg/Ha PPI
[17] = Antidote + Biocide No. 1 in furrow, Herbicide No. 16 0.07 Kg/Ha PPI, 13 days
[18] = Antidote + Biocide No. 1 in furrow, Herbicide No. 17 0.14 Kg/Ha PPI, 13 days
[19] = Antidote + Biocide No. 1 in furrow, Herbicide No. 18 0.04 Kg/Ha PPI, 13 days
[20] = Antidote + Biocide No. 1 in furrow, Herbicide No. 20 1.12 Kg/Ha PPI, 13 days
[21] = Antidote + Biocide No. 1 in furrow, Herbicide No. 22 0.28 Kg/Ha PPI, 13 days
[22] = Antidote + Biocide No. 1 in furrow, Herbicide No. 24 0.14 Kg/Ha PPI, 13 days
[23] = Antidote + Biocide No. 1 in furrow, Herbicide No. 25 0.14 Kg/Ha PPI, 13 days
[24] = Antidote + Biocide No. 1 in furrow, Herbicide No. 26 2.24 Kg/Ha PPI, 13 days
[25] = Antidote + Biocide No. 1 in furrow, Herbicide No. 28 0.04 Kg/Ha PPI, 13 days

| SMILES | % Inhibition 5 DAP SHCA [2, 5] [%] | % Inhibition 13 DAP SHCA [2, 6] [%] | % Inhibition SHCA [2, 7] [%] | % Inhibition SHCA [2, 8] [%] | % Inhibition SHCA [2, 9] [%] | % Inhibition SHCA [2, 10] [%] | % Inhibition 5 DAP SHCA ([2]; in vivo) [%] | % Inhibition 13 DAP SHCA ([2]; in vivo) [%] | % Inhibition GIFT [4, 11] [%] | % Inhibition GIFT [4, 12] [%] | % Inhibition GIFT [4, 13] [%] | % Inhibition GIFT [4, 14] [%] | % Inhibition GIFT [4, 15] [%] | % Inhibition GIFT [4, 16] [%] | % Inhibition GIFT [4, 17] [%] | % Inhibition GIFT [4, 18] [%] | % Inhibition GIFT [4, 19] [%] | % Inhibition GIFT [4, 20] [%] | % Inhibition GIFT [4, 21] [%] | % Inhibition GIFT [4, 22] [%] | further results |
| --- | --- | --- | --- | --- | --- | --- | --- | --- | --- | --- | --- | --- | --- | --- | --- | --- | --- | --- | --- | --- | --- |
| COC(=O)COC(c1ccccc1)c1ccccc1 [compound 12] | 0 | 80 | 75 | 75 | 90 | 60 | 15 | 75 | 60 | 0 | 0 | 0 | 25 | 0 | 35 | 80 | 50 | 25 | 20 | 20 | % Inhibition COTT ([1]; Table 64, Herb. No. 1 0.018 Kg/Ha + Biocide No. 1 8.96 Kg/Ha + Antidote 4.48 Kg/Ha): 10%; % Inhibition COTT ([1]; Table 64, Herb. No. 1 0.07 Kg/Ha + Biocide No. 1 8.96 Kg/Ha + Antidote 4.48 Kg/Ha): 40%; % Inhibition COTT ([1]; Table 64, Herb. No. 1 0.28 Kg/Ha + Biocide No. 1 8.96 Kg/Ha + Antidote 4.48 Kg/Ha): 40%; % Inhibition COTT ([1]; Table 65, Herb. No. 1 0.018 Kg/Ha + Biocide No. 1 8.96 Kg/Ha + Antidote 4.48 Kg/Ha): 15%; % Inhibition COTT ([1]; Table 65, Herb. No. 1 0.07 Kg/Ha + Biocide No. 1 8.96 Kg/Ha + Antidote 4.48 Kg/Ha): 10%; % Inhibition COTT ([1]; Table 65, Herb. No. 1 0.28 Kg/Ha + Biocide No. 1 8.96 Kg/Ha + Antidote 4.48 Kg/Ha): 35%; % Inhibition 13 DAP SHCA ([2]; Herb. […], 13 DAP, after herbicide application): 85%; % Inhibition SHCA ([2]; […], observed 8 days later (Table 32)): 80%; % Inhibition SHCA ([2]; […], observed 8 days later (Table 33)): 40%; % Inhibition VELE ([3]; […], PPI, 14 days after PPI (Table 34)): 90%; % Inhibition GIFT [4, 23]: 25%; % Inhibition GIFT [4, 24]: 0%; % Inhibition GIFT [4, 25]: 35%; % Inhibition GIFT ([4]; Herbicide No. 12 0.0044 Kg/Ha PPI + Biocide No. 1 in furrow, no antidote): 0%; % Inhibition GIFT ([4]; Herbicide No. 12 0.0044 Kg/Ha PPI alone, average of two reps): 0% |
| COC(=O)c1c(Cl)nn(C)c1S(=O)(=O)NC(=O)Nc1nc(OC)cc(OC)n1 [Herbicide No. 1, N-[(4,6-dimethoxypyrimidin-2-yl)aminocarbonyl]-3-chloro-4-methoxycarbonyl-5-sulfonamide, reference compound] |  |  |  |  |  |  |  |  |  |  |  |  |  |  |  |  |  |  |  |  | inhibition ([1]; Table 64, Herb. No. 1 0.018 Kg/Ha + Biocide No. 1 8.96 Kg/Ha): 15%; inhibition at 18 g/ha ([1]; Table 64): 10%; inhibition ([1]; Table 64, Herb. No. 1 0.07 Kg/Ha + Biocide No. 1 8.96 Kg/Ha): 0%; inhibition at 70 g/ha ([1]; Table 64): 20%; inhibition ([1]; Table 64, Herb. No. 1 0.28 Kg/Ha + Biocide No. 1 8.96 Kg/Ha): 55%; inhibition at 280 g/ha ([1]; Table 64): 60%; inhibition ([1]; Table 65, Herb. No. 1 0.018 Kg/Ha + Biocide No. 1 8.96 Kg/Ha): 0%; inhibition at 18 g/ha ([1]; Table 65): 0%; inhibition ([1]; Table 65, Herb. No. 1 0.07 Kg/Ha + Biocide No. 1 8.96 Kg/Ha): 20%; inhibition at 70 g/ha ([1]; Table 65): 20%; inhibition ([1]; Table 65, Herb. No. 1 0.28 Kg/Ha + Biocide No. 1 8.96 Kg/Ha): 75%; inhibition at 280 g/ha ([1]; Table 65): 40%; inhibition at 140 g/ha ([3]; Herb. No. 1 0.14 kg/Ha alone, PPI, 13 days after planting): 95%; inhibition at 140 g/ha ([3]; Table 51, Herbicide No. 1 0.14 Kg/Ha, where applied Biocide No. 8 8.96 kg/Ha and antidote 4.48 Kg/Ha, all PPI, observed 13 days after treatment): 85%; inhibition at 140 g/ha ([3]; Table 52, Herbicide No. 1 0.14 Kg/Ha, where applied Biocide No. 5 8.96 kg/Ha and antidote 4.48 Kg/Ha, all PPI, observed 13 days after treatment): 85%; % Inhibition VELE ([3]; Herbicide No. 1 0.0175 Kg/Ha PPI alone, Table 19): 85%; % Inhibition VELE ([3]; Herbicide No. 1 0.0175 Kg/Ha PPI alone, Table 20): 80%; % Inhibition VELE ([3]; Herbicide No. 1 0.0175 Kg/Ha PPI alone, Table 21): 80%; % Inhibition VELE ([3]; Herbicide No. 1 0.0175 Kg/Ha PPI alone, Table 22): 85%; % Inhibition VELE ([3]; in vivo): 95% and 90% and 80% |
| N#CCOc1ccc(Cl)c2cccnc12 [compound 33] | 20 | 90 | 70 | 75 | 90 | 55 | 70 | 90 | 70 | 0 | 0 | 10 | 35 | 0 | 45 | 80 | 45 | 30 | 15 | 25 | % Inhibition GIFT [4, 23]: 25%; % Inhibition GIFT [4, 24]: 15%; % Inhibition GIFT [4, 25]: 40% |
